tested on: ventricular flutter and fibrillation; test: Antiarrhythmic activity: prevention of ventricular flutter and fibrillation in mice caused to inhale chloroform; type: in vivo, male mice of ddy strain; conditions: Mus musculus, sc, 0.5 h; subcutaneous, 30 minutes before chloroform inhalation; Litchfield and Wilcoxon; 95% confidence limit in parentheses
Experimental: In accordance with the method described by J. W. Lawson [Journal of pharmacology and Experimental Therapeutics, 160, 22, (1966)], male mice of ddy strain were caused to inhale chloroform and when respiration was arrested, electrocardiography was performed to observe the ventricular flutter and fibrillation. These abnormalities of the cardiac ventricle are prevented if an antiarrhythmic agent is previously administered. Several different doses of the compound of this invention were subctaneously administered to mice in group of 29 to 40 animals and, after an interval of 30 minutes, the animals were caused to inhale chloroform. The prophylactic effects of these doses on ventricular flutter and fibrillation were estimated and the 50% effective dose (ED50) and its 95% confidence limit were calculated by the method of Litchfield and Wilcoxon [Journal of Pharmacology and Experimental Therapeutics 96, 99, (1949)].

Compound | ED50
Cc1ccc(NC(=O)C(C)C23CCCN2CCC3)cc1 (stereo not drawn) | 115 mg/kg
CCC(C(=O)Nc1c(C)cccc1C)C12CCCN1CCC2 (stereo not drawn) | 8.5 mg/kg
Cc1cccc(C)c1NC(=O)C(c1ccccc1)C12CCCN1CCC2 (stereo not drawn) | 3.1 mg/kg
Cc1cccc(C)c1NC(=O)[C@H](C)C12CCCN1CCC2 [(2R)(-)SUN3341, N-(2,6-dimethylphenyl)-2-(8-pyrrolizidine)propionamide] | 2.6 mg/kg
Cc1cccc(C)c1NC(=O)[C@@H](C)C12CCCN1CCC2 [(2S)(+)-SUN3341, N-(2,6-dimethylphenyl)-2-(8-pyrrolizidine)propionamide] | 24 mg/kg
Cc1cccc(C)c1NC(=O)C(C)C12CCCN1CCC2 (stereo not drawn) [N-(2,6-dimethylphenyl)-2-(8-pyrrolizidine)propionamide] | 23 mg/kg

same assay, conditions: versus racemic compound [(±)-compound]

Compound | antiarrhythmic activity relative to the racemic compound
Cc1cccc(C)c1NC(=O)[C@H](C)C12CCCN1CCC2 [(2R)(-)SUN3341, N-(2,6-dimethylphenyl)-2-(8-pyrrolizidine)propionamide] | approximately 9 times

tested on: not listed separately; test: 50% lethal dose (LD50) by the up and down method; therapeutic index; type: in vivo; conditions: mouse, in vivo; male mice, bodyweight 18 to 22 g; up and down method

Compound | LD50
Cc1ccc(NC(=O)C(C)C23CCCN2CCC3)cc1 (stereo not drawn) | 400 mg/kg
CCC(C(=O)Nc1c(C)cccc1C)C12CCCN1CCC2 (stereo not drawn) | 26 mg/kg
Cc1cccc(C)c1NC(=O)C(c1ccccc1)C12CCCN1CCC2 (stereo not drawn) | 22 mg/kg
Cc1cccc(C)c1NC(=O)[C@H](C)C12CCCN1CCC2 [(2R)(-)SUN3341, N-(2,6-dimethylphenyl)-2-(8-pyrrolizidine)propionamide] | 67.6 mg/kg
Cc1cccc(C)c1NC(=O)[C@@H](C)C12CCCN1CCC2 [(2S)(+)-SUN3341, N-(2,6-dimethylphenyl)-2-(8-pyrrolizidine)propionamide] | 79.3 mg/kg
Cc1cccc(C)c1NC(=O)C(C)C12CCCN1CCC2 (stereo not drawn) [N-(2,6-dimethylphenyl)-2-(8-pyrrolizidine)propionamide] | 92.1 mg/kg

tested on: male mice; test: as above; type: in vivo; conditions: in words; versus racemic compound

Compound | toxicity relative to the racemic compound
Cc1cccc(C)c1NC(=O)[C@H](C)C12CCCN1CCC2 [(2R)(-)SUN3341, N-(2,6-dimethylphenyl)-2-(8-pyrrolizidine)propionamide] | comparable to the racemic compound in toxicity

same assay, conditions: ratio of LD50 to ED50

Compound | Therapeutic index
Cc1ccc(NC(=O)C(C)C23CCCN2CCC3)cc1 (stereo not drawn) | 3.4
CCC(C(=O)Nc1c(C)cccc1C)C12CCCN1CCC2 (stereo not drawn) | 3.1
Cc1cccc(C)c1NC(=O)C(c1ccccc1)C12CCCN1CCC2 (stereo not drawn) | 7.1
Cc1cccc(C)c1NC(=O)[C@H](C)C12CCCN1CCC2 [(2R)(-)SUN3341, N-(2,6-dimethylphenyl)-2-(8-pyrrolizidine)propionamide] | 26.0
Cc1cccc(C)c1NC(=O)[C@@H](C)C12CCCN1CCC2 [(2S)(+)-SUN3341, N-(2,6-dimethylphenyl)-2-(8-pyrrolizidine)propionamide] | 3.3
Cc1cccc(C)c1NC(=O)C(C)C12CCCN1CCC2 (stereo not drawn) [N-(2,6-dimethylphenyl)-2-(8-pyrrolizidine)propionamide] | 4.0

same assay, conditions: versus racemic compound

Compound | therapeutic index, in words
Cc1cccc(C)c1NC(=O)[C@H](C)C12CCCN1CCC2 [(2R)(-)SUN3341, N-(2,6-dimethylphenyl)-2-(8-pyrrolizidine)propionamide] | remarkably improved therapeutic index
